Experimental data as given in BigSolDB 2.1.

COc1cc(/C=C/c2ccc(O)cc2)cc(OC)c1
Settings | solubility (mole fraction)
in PEG-400, 298.2 K | 0.346
in PEG-400, 303.2 K | 0.351
in PEG-400, 308.2 K | 0.358
in PEG-400, 313.2 K | 0.366
in PEG-400, 318.2 K | 0.373

solubility (mole fraction)
Settings | 298.2 K | 303.2 K | 308.2 K | 313.2 K | 318.2 K
in ethanol | 0.113 | 0.117 | 0.124 | 0.129 | 0.136
in propylene glycol | 0.25 | 0.26 | 0.272 | 0.281 | 0.29
in transcutol | 0.23 | 0.235 | 0.241 | 0.248 | 0.253
in water | 1.27e-06 | 1.62e-06 | 2.04e-06 | 2.53e-06 | 2.95e-06
